The target of series [1] is T1, Procathepsin L (Homo sapiens, UniProt P07711). Put plainly: Inhibition of human cathepsin L using Z-Phe-Arg-7-amido-4-methylcoumarin as substrate preincubated for 2 mins followed by substrate addition by fluorimetric assay.
Series [2] in a line: Inhibition of Leishmania mexicana CPB delta CTE mutant using Z-Phe-Arg-7-amido-4-methylcoumarin as substrate preincubated for 2 mins followed by substrate addition by fluorimetric assay.
Another series has as its target Cruzipain (Trypanosoma cruzi, UniProt P25779). Put plainly: Inhibition of recombinant Trypanosoma cruzi cruzain using Z-Phe-Arg-7-amido-4-methylcoumarin as substrate preincubated for 2 mins followed by substrate addition by fluorimetric assay.
For series [3], the system named is Leishmania mexicana. Put plainly: Inhibition of Leishmania mexicana CPB delta CTE mutant assessed as on rate constant.
The test system of series [4] is Leishmania mexicana. Put plainly: Inhibition of Leishmania mexicana CPB delta CTE mutant assessed as off rate constant.
Series [5] deals with Cruzipain (Trypanosoma cruzi) (UniProt P25779). Put plainly: Inhibition of recombinant Trypanosoma cruzi cruzain assessed as on rate constant.
In series [6] the target is cathepsin L (Procathepsin L) (Homo sapiens, UniProt P07711). Put plainly: Inhibition of human cathepsin L assessed as off rate constant. Particulars: human cathepsin L enzyme, read-out: K.
Series [7] addresses T1, Procathepsin L. Put plainly: Inhibition of human cathepsin L assessed as on rate constant.
In series [8] the target is Cruzipain (Trypanosoma cruzi) (UniProt P25779). Put plainly: Inhibition of recombinant Trypanosoma cruzi cruzain assessed as off rate constant.

What is called Ki is the dissociation constant of the complex between target and ligand, obtained from inhibition or displacement. Broadly, the pKi is the Ki on a negative log10 scale, so that one unit is a factor of ten.

T1 sequence (P07711 whole entry): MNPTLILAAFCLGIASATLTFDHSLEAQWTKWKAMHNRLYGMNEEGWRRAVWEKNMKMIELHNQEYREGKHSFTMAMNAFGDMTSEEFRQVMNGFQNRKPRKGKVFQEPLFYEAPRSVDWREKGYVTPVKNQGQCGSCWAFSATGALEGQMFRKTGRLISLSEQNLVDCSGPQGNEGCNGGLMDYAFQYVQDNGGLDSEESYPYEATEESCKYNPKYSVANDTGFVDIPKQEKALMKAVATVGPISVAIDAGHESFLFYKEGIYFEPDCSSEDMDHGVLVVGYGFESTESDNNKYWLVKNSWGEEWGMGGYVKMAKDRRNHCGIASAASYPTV
Sequence of Cruzipain (P25779 whole entry): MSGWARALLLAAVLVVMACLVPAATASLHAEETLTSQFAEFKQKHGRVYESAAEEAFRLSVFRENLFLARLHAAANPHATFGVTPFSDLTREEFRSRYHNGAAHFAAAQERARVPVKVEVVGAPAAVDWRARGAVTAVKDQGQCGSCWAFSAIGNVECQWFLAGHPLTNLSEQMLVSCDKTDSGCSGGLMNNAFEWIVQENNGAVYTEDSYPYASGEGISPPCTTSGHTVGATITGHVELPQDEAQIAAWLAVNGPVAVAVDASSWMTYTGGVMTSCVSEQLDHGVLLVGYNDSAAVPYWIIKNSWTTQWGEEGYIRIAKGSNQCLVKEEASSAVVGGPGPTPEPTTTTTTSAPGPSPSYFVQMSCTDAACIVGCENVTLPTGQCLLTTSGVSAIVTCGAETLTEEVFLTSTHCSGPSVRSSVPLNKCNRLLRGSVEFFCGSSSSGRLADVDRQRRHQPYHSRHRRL
Sequence of Cruzipain (Trypanosoma cruzi) (P25779 123-467 limits assumed): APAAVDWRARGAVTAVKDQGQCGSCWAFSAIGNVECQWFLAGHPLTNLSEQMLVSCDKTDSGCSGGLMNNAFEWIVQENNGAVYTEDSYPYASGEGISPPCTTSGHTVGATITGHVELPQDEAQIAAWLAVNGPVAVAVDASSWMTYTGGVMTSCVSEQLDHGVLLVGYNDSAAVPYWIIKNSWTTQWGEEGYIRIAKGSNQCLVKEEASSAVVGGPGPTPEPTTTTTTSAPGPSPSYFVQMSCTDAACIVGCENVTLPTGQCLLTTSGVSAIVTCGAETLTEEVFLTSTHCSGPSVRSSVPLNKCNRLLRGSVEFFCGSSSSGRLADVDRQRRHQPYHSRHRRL
Sequence of cathepsin L (Procathepsin L) (P07711 whole entry): as the sequence (P07711 whole entry) above

`N#CCNC(=O)[C@H](Cc1ccccc1)NC(=O)c1ccccc1`: affinity on Procathepsin L [1] was put at a Ki of 126 nM. Moreover, the pKi in series [2] stood at 6.6.

The compound `CC(C)C[C@H](NC(=O)OC(C)(C)C)C(=O)NC1(C#N)CC1` gave a Ki on Procathepsin L [1] of 631 nM. In series [2], this compound showed a pKi of 6.3.

`Cn1nc(C(C)(C)C)cc1C(=O)N[C@@H](Cc1cccc(Cl)c1)C(=O)NCC#N` gave an inhibitory constant (Ki) at Procathepsin L [1] of 1.26 nM. Besides, in series [2], the pKi worked out at 6.6.

In turn, `N#CC1(NC(=O)[C@H](Cc2ccccc2)NC(=O)c2ccccc2)CC1` had a Ki at Procathepsin L [1] of 50.1 nM. The pKi in series [2] is listed as 6.8.

Turning to `N#CCNC(=O)[C@@H](Cc1ccccc1)NC(=O)c1ccccc1`, the Ki at Procathepsin L [1] was 1580 nM; on Cruzipain, 6310 nM. The compound further yielded a pKi in series [2] of 5.9.

For `N#CCNC(=O)[C@H](Cc1cccc(Cl)c1)NC(=O)c1ccccc1`, on Procathepsin L [1], the Ki is 20 nM. In series [2], this compound came in with a pKi of 5.2.

On to `N#CCNC(=O)[C@H](Cc1ccccc1)NC(=O)c1c[nH]c(=O)[nH]c1=O`, for which the figures for the Ki on Procathepsin L [1] and on Cruzipain were 1000 nM and 1260 nM, respectively. In series [2], this compound had a pKi of 6.5.

`N#CCNC(=O)[C@H](Cc1ccccc1)NC(=O)c1cnccn1`: the Ki on Procathepsin L [1] is 1000 nM; on Cruzipain, 6310 nM. Further, the pKi in [2] was found to be 6.2.

On Procathepsin L [1], `N#CCNC(=O)C1(NC(=O)c2ccccc2)CCCC1` showed a Ki of 10000 nM. In series [2], this compound came in with a pKi of 4.3.

As to `N#CCNC(=O)[C@H](Cc1ccccc1)NC(=O)c1cncc(Br)c1`, the Ki at Procathepsin L [1] was 10 nM; on Cruzipain, 158 nM. This compound also registered a pKi in series [2] of 6.9.

On to `CC(C)C[C@H](NC(=O)Cc1ccccc1)C(=O)NC1(C#N)CC1`, for which the Ki at Procathepsin L [1] is 63.1 nM; on Cruzipain, 39.8 nM. Further, in series [2], the pKi is given as 7.2.

Compound `N#CCNC(=O)[C@H](Cc1ccc(OC(=O)c2ccccc2)cc1)NC(=O)c1ccccc1` gave a Ki on Procathepsin L [1] of 251 nM. In series [2], this compound registered a pKi of 6.9.

Consider `CC(C)(C#N)NC(=O)[C@H](Cc1ccccc1)NC(=O)c1ccccc1`, for which, at Procathepsin L [1], the affinity corresponds to a Ki of 631 nM. Also, the pKi in series [2] was determined as 5.7.

With `Cn1nc(C(C)(C)C)cc1C(=O)N[C@@H](Cc1ccccc1)C(=O)NCC#N`, the affinity at Procathepsin L [1], expressed as Ki, was 3.98 nM. In [2], this compound came in with a pKi of 7.4.

Compound `CC(C)C[C@H](NC(=O)OC(C)(C)C)C(=O)NCC#N` gave an inhibition constant Ki on Procathepsin L [1] of 2510 nM. The compound also yielded a pKi in series [2] of 5.8.

On to `CC(C)(C)OC(=O)N[C@@H](Cc1ccccc1)C(=O)NCC#N`, for which the Ki on Cruzipain is 2510 nM. Besides, the pKi in series [2] was 5.8.

For `N#CC1(NC(=O)C2(NC(=O)c3ccccc3)CCCC2)CC1`, the inhibitory constant (Ki) at Procathepsin L [1] was 3980 nM; at Cruzipain, 12600 nM. For the same compound, the pKi in series [2] stood at 5.2.

Compound `N#CCNC(=O)[C@H](Cc1ccccc1)NC(=O)OCc1ccccc1` gave a Ki at Procathepsin L [1] of 126 nM. The compound further returned a pKi in [2] of 6.6.

Compound `Cn1nc(C(C)(C)C)cc1C(=O)N[C@@H](Cc1ccccc1)C(=O)NC1(C#N)CC1` had a Ki on Procathepsin L [1] of 5.01 nM. The same compound came in with a pKi in [2] of 7.3.

Consider `N#CCNC(=O)[C@H](Cc1ccc(O)cc1)NC(=O)c1ccccc1`, for which, at Procathepsin L [1], the Ki was 79.4 nM. Further, in [2], the pKi is on record as 5.7.

`N#CCNC(=O)[C@H](Cc1ccccc1)NC(=O)c1ccco1` had a Ki at Procathepsin L [1] of 501 nM. Besides, the pKi in series [2] is 6.3.

As to `Cn1nc(C(F)(F)F)cc1C(=O)N[C@@H](Cc1ccccc1)C(=O)NCC#N`, the Ki at Procathepsin L [1] is 25.1 nM; on Cruzipain, 501 nM. This compound had a pKi in series [2] of 7.

Take `CC(C)C[C@H](NC(=O)c1cc(C(C)(C)C)nn1C)C(=O)N(C)N(C)C#N`: the affinity on Procathepsin L [1] corresponds to a Ki of 0.501 nM. Also, the K is 0.22 10^-6/M/s in the series on Leishmania mexicana [3] and 0.04 10^-6/s with Leishmania mexicana [4]. In series [2], this compound displayed a pKi of 9.7.

As to `CC(C)(C)OC(=O)N[C@@H](Cc1cccc(Cl)c1)C(=O)NCC#N`, the affinity at Procathepsin L [1], expressed as Ki, was 251 nM. This compound registered a pKi in series [2] of 5.2.

Consider `CC(C)C[C@H](NC(=O)C1(c2ccccc2)CC1)C(=O)NC1(C#N)CC1`, for which the Ki at Procathepsin L [1] is 5.01 nM; on Cruzipain it was 25.1 nM. The compound also registered a pKi in series [2] of 7.2.

Turning to `CC(C)C[C@H](NC(=O)C1(c2ccccc2)CCC1)C(=O)NC1(C#N)CC1`, the Ki on Procathepsin L [1] was 5.01 nM; at Cruzipain, 20 nM. The pKi in series [2] was 7.6.

`N#CCNC(=O)[C@H](Cc1c[nH]c2ccccc12)NC(=O)c1ccccc1`: at Procathepsin L [1], the affinity, expressed as Ki, was 50.1 nM. This compound registered a pKi in series [2] of 6.1.

`CC(C)C[C@H](NC(=O)c1cc(C(C)(C)C)nn1C)C(=O)NC1(C#N)CC1` showed a Ki at Procathepsin L [1] of 12.6 nM. In [2], this compound displayed a pKi of 8.3.

With `CN(C#N)N(C)C(=O)[C@H](Cc1ccccc1)NC(=O)c1cc(C(C)(C)C)nn1C`, the Ki at Procathepsin L [1] is 0.126 nM. Besides, the K in [5] was 7.7e+06 M⁻¹ s⁻¹; in the series on Leishmania mexicana [3], 1 10^-6/M/s; in the series on Leishmania mexicana [4] it was 0.2 10^-6/s; on Procathepsin L [7], 700000 M⁻¹ s⁻¹; in series [8], 12 10^-6/s. The koff in [6] turned out to be 8e-08 s⁻¹. Besides, the pKi in series [2] was 9.7.

Compound `CC(C)C[C@H](NC(=O)c1ccccc1)C(=O)NC1(C#N)CC1` returned a pKi in series [2] of 6.8.

On to `N#CCNC(=O)[C@H](Cc1ccccc1)NC(=O)c1cccs1`, for which, on Procathepsin L [1], the Ki was 501 nM. The compound further had a pKi in [2] of 6.4.

On to `N#CCNC(=O)[C@H](Cc1ccccc1)NC(=O)c1cncnc1`, for which the values for the Ki at Procathepsin L [1] and on Cruzipain were 1000 nM and 5010 nM, respectively. Further, the pKi in series [2] is 6.2.

Compound `CC(C)C[C@H](NC(=O)c1cc(C(C)(C)C)nn1C)C(=O)NCC#N` showed a Ki at Procathepsin L [1] of 25.1 nM. Further, the pKi in series [2] was 7.6.

Take `CC(C)C[C@H](NC(=O)C(C)(C)c1ccccc1)C(=O)NC1(C#N)CC1`: the Ki at Procathepsin L [1] was 39.8 nM; on Cruzipain it was 158 nM. The same compound yielded a pKi in series [2] of 6.4.

Take `CC(C)C[C@H](NC(=O)C(F)(F)c1ccccc1)C(=O)NC1(C#N)CC1`: the Ki was 31.6 nM on Procathepsin L [1] and 63.1 nM at Cruzipain. In series [2], this compound had a pKi of 6.8.

Take `CC[C@@H](C)[C@H](NC(=O)c1ccccc1)C(=O)NC1(C#N)CC1`: the Ki at Procathepsin L [1] was 3160 nM; on Cruzipain it was 25100 nM. Besides, the pKi in [2] was found to be 5.5.

For the origin of these results see ChEMBL document CHEMBL4699568, “Crystal structure of Leishmania mexicana cysteine protease B in complex with a high-affinity azadipeptide nitrile inhibitor” (Bioorg Med Chem, 2020).
